Activity calls are given as the source filed them. The rule behind the calls is not given here.
How the values were obtained:
Mus musculus [1] = assay: Antiatherosclerotic activity in atherogenic western diet fed ApoE-/- C57BL/6 mouse model assessed as reduction in perimeter of ascending aorta covered by atheromatic spots/lesions at 56 umol/kg, ip administered twice daily for 3.5 months relative to control; type: functional; parameters: scale not given: the % may be the effect or the level left; conditions: dose 56 µmol/kg, 2555 h
Mus musculus [2] = assay: Antiatherosclerotic activity in atherogenic western diet fed ApoE-/- C57BL/6 mouse model assessed as reduction in atheromatic spots in aortic arch at 56 umol/kg, ip administered twice daily for 3.5 months by H&E staining based analysis; type: functional, organism-based; conditions: dose 56.0 µmol/kg
[3] = Hepatotoxicity in atherogenic western diet fed ApoE-/- C57BL/6 mouse model assessed as increase in SGPT level at 56 umol/kg, ip administered twice daily for 3.5 months; type: toxicity, organism-based; conditions: in vivo, 2555 h, dose 56 µmol/kg
Mus musculus [4] = assay: Antiatherosclerotic activity in atherogenic western diet fed ApoE-/- C57BL/6 mouse model assessed as effect on HDL/LDL index in plasma at 56 umol/kg, ip administered twice daily for 3.5 months; type: functional, organism-based; conditions: dose 56.0 µmol/kg
[5] = Hepatotoxicity in atherogenic western diet fed ApoE-/- C57BL/6 mouse model assessed as edema at 56 umol/kg, ip administered twice daily for 3.5 months; type: toxicity, organism-based; conditions: in vivo, 2555 h, dose 56 µmol/kg
Mus musculus [6] = assay: Antiatherosclerotic activity in atherogenic western diet fed ApoE-/- C57BL/6 mouse model assessed as reduction in atherosclerosis severity in ascending aorta at 56 umol/kg, ip administered twice daily for 3.5 months by H&E staining based analysis; type: functional, organism-based; conditions: dose 56.0 µmol/kg
[7] = Hepatotoxicity in atherogenic western diet fed ApoE-/- C57BL/6 mouse model assessed as effect on GGT level at 56 umol/kg, ip administered twice daily for 3.5 months; type: toxicity, organism-based; conditions: in vivo, 2555 h, dose 56 µmol/kg
Mus musculus [8] = assay: Antihyperglycemic activity in atherogenic western diet fed ApoE-/- C57BL/6 mouse model assessed as decrease in glucose level at 56 umol/kg, ip administered twice daily for 3.5 months by glucometer analysis relative to control; type: functional; parameters: scale not given: the % may be the effect or the level left; conditions: dose 56 µmol/kg, 2555 h
[9] = Hepatotoxicity in atherogenic western diet fed ApoE-/- C57BL/6 mouse model assessed as effect on ALP level at 56 umol/kg, ip administered twice daily for 3.5 months; type: toxicity, organism-based; conditions: in vivo, 2555 h, dose 56 µmol/kg
Mus musculus [10] = assay: Antiatherosclerotic activity in atherogenic western diet fed ApoE-/- C57BL/6 mouse model assessed as decrease in total cholesterol level in plasma at 56 umol/kg, ip administered twice daily for 3.5 months; type: functional, organism-based; conditions: dose 56.0 µmol/kg
Mus musculus [11] = assay: Antiatherosclerotic activity in atherogenic western diet fed ApoE-/- C57BL/6 mouse model assessed as reduction in atheromatic lesions in aortic sinus at 56 umol/kg, ip administered twice daily for 3.5 months by H&E staining based analysis; type: functional, organism-based; conditions: dose 56.0 µmol/kg
Mus musculus [12] = assay: Antiatherosclerotic activity in atherogenic western diet fed ApoE-/- C57BL/6 mouse model assessed as reduction in fat deposition in ascending aorta at 56 umol/kg, ip administered twice daily for 3.5 months by H&E staining based analysis; type: functional, organism-based; conditions: dose 56.0 µmol/kg
Mus musculus [13] = assay: Antiatherosclerotic activity in atherogenic western diet fed ApoE-/- C57BL/6 mouse model assessed as reduction in atheromatic lesions in aortic arch at 56 umol/kg, ip administered twice daily for 3.5 months by H&E staining based analysis; type: functional, organism-based; conditions: dose 56.0 µmol/kg
Mus musculus [14] = assay: Antihypercholesterolemic activity in atherogenic western diet fed SKH2 mouse model assessed as increase in HDL level at 56 umol/kg, ip administered twice daily for 3.5 months relative to control; type: functional; conditions: dose 56 µmol/kg, 2555 h
[15] = Hepatotoxicity in atherogenic western diet fed ApoE-/- C57BL/6 mouse model assessed as increase in SGOT level at 56 umol/kg, ip administered twice daily for 3.5 months; type: toxicity, organism-based; conditions: in vivo, 2555 h, dose 56 µmol/kg
[16] = Hepatotoxicity in atherogenic western diet fed ApoE-/- C57BL/6 mouse model assessed as degeneration at 56 umol/kg, ip administered twice daily for 3.5 months; type: toxicity, organism-based; conditions: in vivo, 2555 h, dose 56 µmol/kg
Mus musculus [17] = assay: Antihypercholesterolemic activity in atherogenic western diet fed SKH2 mouse model assessed as decrease in LDL level at 56 umol/kg, ip administered twice daily for 3.5 months relative to control; type: functional; parameters: scale not given: the % may be the effect or the level left; conditions: dose 56 µmol/kg, 2555 h
Mus musculus [18] = assay: Antiatherosclerotic activity in atherogenic western diet fed ApoE-/- C57BL/6 mouse model assessed as reduction in atheromatic spots in aortic sinus at 56 umol/kg, ip administered twice daily for 3.5 months by H&E staining based analysis; type: functional, organism-based; conditions: dose 56.0 µmol/kg
Mus musculus [19] = assay: Antioxidant activity in atherogenic western diet fed ApoE-/- C57BL/6 mouse model assessed as decrease in MDA level at 56 umol/kg, ip administered twice daily for 3.5 months relative to control; type: functional; parameters: scale not given: the % may be the effect or the level left; conditions: dose 56 µmol/kg, 2555 h
Mus musculus [20] = assay: Antiatherosclerotic activity in atherogenic western diet fed ApoE-/- C57BL/6 mouse model assessed as decrease in total cholesterol level in plasma at 56 umol/kg, ip administered twice daily for 3.5 months relative to control; type: functional; parameters: scale not given: the % may be the effect or the level left; conditions: dose 56 µmol/kg, 2555 h
[21] = Toxicity in western diet fed ApoE-/- C57BL/6 mouse model assessed as weight change at 56 umol/kg, ip administered twice daily for 3.5 months; type: organism-based; conditions: in vivo, 2555 h, dose 56 µmol/kg
Mus musculus [22] = assay: Antiatherosclerotic activity in atherogenic western diet fed ApoE-/- C57BL/6 mouse model assessed as reduction in area of ascending aorta covered by atheromatic spots/lesions at 56 umol/kg, ip administered twice daily for 3.5 months relative to control; type: functional; parameters: scale not given: the % may be the effect or the level left; conditions: dose 56 µmol/kg, 2555 h
Mus musculus [23] = assay: Antiatherosclerotic activity in atherogenic western diet fed ApoE-/- C57BL/6 mouse model assessed as decrease in LDL level in plasma at 56 umol/kg, ip administered twice daily for 3.5 months; type: functional, organism-based; conditions: dose 56.0 µmol/kg
Mus musculus [24] = assay: Antihypercholesterolemic activity in atherogenic western diet fed SKH2 mouse model assessed as decrease in total cholesterol level at 56 umol/kg, ip administered twice daily for 3.5 months relative to control; type: functional; parameters: scale not given: the % may be the effect or the level left; conditions: dose 56 µmol/kg, 2555 h
Mus musculus [25] = assay: Antiatherosclerotic activity in atherogenic western diet fed ApoE-/- C57BL/6 mouse model assessed as reduction in lesion area in ascending aorta at 56 umol/kg, ip administered twice daily for 3.5 months by H&E staining based analysis; type: functional, organism-based; conditions: dose 56.0 µmol/kg
Mus musculus [26] = assay: Antiatherosclerotic activity in atherogenic western diet fed ApoE-/- C57BL/6 mouse model assessed as decrease in LDL level in plasma at 56 umol/kg, ip administered twice daily for 3.5 months relative to control; type: functional; parameters: scale not given: the % may be the effect or the level left; conditions: dose 56 µmol/kg, 2555 h

Br.CN1CCOC(O)(c2ccc3c(c2)Sc2ccccc2N3)C1 (stereo unspecified)
Activity (Mus musculus [1]): 70%
Activity (Mus musculus [2]): Active
Activity [3]: Non-Toxic
Activity (Mus musculus [4]): Active
Activity [5]: Non-Toxic
Activity (Mus musculus [6]): Active
Activity [7]: Non-Toxic
Activity (Mus musculus [8]): 19%
Activity [9]: Non-Toxic
Activity (Mus musculus [10]): Active
Activity (Mus musculus [11]): Active
Activity (Mus musculus [12]): Active
Activity (Mus musculus [13]): Active
Activity (Mus musculus [14]): >100%
Activity [15]: Non-Toxic
Activity [16]: Non-Toxic
Activity (Mus musculus [17]): 76%
Activity (Mus musculus [18]): Active
Activity (Mus musculus [19]): 41%
Activity (Mus musculus [20]): 20%
Activity [21]: Non-Toxic
Activity (Mus musculus [22]): 55%
Activity (Mus musculus [23]): Active
Activity (Mus musculus [24]): 53%
Activity (Mus musculus [25]): Active
Activity (Mus musculus [26]): 20%
